Experiment [1] deals with COS-7, PC12, and SH-SY5Y cells. Conditions: treatment with proteasome inhibitor; cited from earlier work.
Experiment [2] deals with mutant Huntingdon exon 1-expressing PC12 and SH-SY5Y cells. Conditions: overexpression; cited from earlier work.
For the next experiment, the system named is COS-7 cells. Conditions: overexpression; cited from earlier work.
The next experiment relates to bacteriophage λ. Nature of the experiment: Growth of bacteriophage λ in transformed groEL strains. The class given is cell-based, bacteriophage λ (b2cI) in E. coli. Conditions: SV1 (groE^+). An excerpt:
The E. Coli strains used in this study were: C41(DE3), a mutant of BL21(DE3) capable of expressing toxic genes (Miroux, B. & Walker, J. E. (1996) J. Mol. Biol. 260, 289-298); SV2 (B178groEL44), SV3 (B178groEL59) and SV6 (B178groEL673): isogenic strains carrying temperature-sensitive alleles of groEL; SV1(=B178) (Georgopoulos, C., Hendrix, R. W., Casjens, S. R. & Kaiser, A. D. (1973) J. Mol. Biol. 76, 45-60), A190 (ΔgroEL::kan^R) [pBAD-EL] (Ivic, A., Olden, D., Wallington, E. J. & Lund, P. A. (1997) Gene 194, 1-8), and TG1 (Gibson, T. J. (1984) Ph.D. thesis, University of Cambridge, U.K). Bacteriophage λb2cI (Zeilstra-Ryalls, J., Fayet, O., Baird, L. & Georgopoulos, C. (1993) J. Bacteriol. 175, 1134-1143) was used according to standard methods (Arber, W., Enquist, L., Hohn, B., Murray, N. E. & Murray, K. (1983) in Lambda II., ed. R. W. Hendrix, J. W. r., F. W. Stahl and R. A. Weisberg (Cold Spring Harbor Laboratory, Cold Spring Harbor, N.Y.), pp. 433-466); plaque formation was assayed at 30° C. T4D0, a derivative of bacteriophage T4 (Zeilstra-Ryalls, J., Fayet, O., Baird, L. & Georgopoulos, C. (1993) J. Bacteriol. 175, 1134-1143), was used according to standard methods (Karam, J. D. (1994) Molecular biology of bacteriophage T4. (American Society for Microbiology, Washington, D.C.)); plaque formation was assayed at 37° C.

The target in a further experiment is GroES (Escherichia coli, UniProt P0A6F9). Conditions: ELISA, FIG. 5a. The procedure:
GroES Binding and Competition Assays by ELISA (Enzyme-Linked Immunosorbant Assay).
Proteins were coated onto plastic microtitre plates (Maxisorb, Nunc) overnight at 4° C. at a concentration of 10 μg/mL in carbonate buffer (50 mM NaHCO3, pH 9.6). Plates were blocked for 1 hour at 25° C. with 2% Marvel in PBS (phosphate buffered saline: 25 mM NaH2PO4, 125 mM NaCl, pH 7.0). GroES, at 10 μg/mL in 100 μL of 10 mM Tris-HCl, 200 mM KCl, pH 7.4, were bound at 25° C. for 1 hour. Bound GroES were detected with rabbit anti-GroES antibodies (Sigma) followed by anti-rabbit immunoglobulins horseradish peroxidase conjugated antibodies (Sigma).

Experiment [3] addresses T1, heat- and dithiothreitol-denatured mtMDH (Sus scrofa, UniProt P00346).
T1 construct: Boehringer-Mannheim); purchased Boehringer-Mannheim; host or cells: pig heart
T1 sequence (P00346 25-338): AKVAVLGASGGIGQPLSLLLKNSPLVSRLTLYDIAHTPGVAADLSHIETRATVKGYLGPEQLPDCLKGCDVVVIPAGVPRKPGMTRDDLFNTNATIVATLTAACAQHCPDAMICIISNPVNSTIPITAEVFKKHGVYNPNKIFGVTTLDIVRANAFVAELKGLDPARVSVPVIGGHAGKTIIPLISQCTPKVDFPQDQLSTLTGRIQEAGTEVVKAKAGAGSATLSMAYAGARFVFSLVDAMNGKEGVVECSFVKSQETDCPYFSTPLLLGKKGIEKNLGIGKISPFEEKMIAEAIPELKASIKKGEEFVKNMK
Nature of the experiment: In vitro refolding of denatured mtMDH. It is filed as biochemical, pig. Conditions: FIG. 7b. As to the method: In vitro Refolding Experiments.
Refolding assays of pig heart mitochondrial malate dehydrogenase (mtMDH; Boehringer-Mannheim) and aggregation protection were carried out essentially as described (Peres Ben-Zvi, A. P., Chatellier, J., Fersht, A. R. & Goloubinoff, P. (1998) Proc. Natl. Acad. Sci. U.S.A. 95, 15275-15280). The concentrations of MC7 used were between 8-16 μM (reporter to protomer).

Sequence of GroES (P0A6F9 whole entry): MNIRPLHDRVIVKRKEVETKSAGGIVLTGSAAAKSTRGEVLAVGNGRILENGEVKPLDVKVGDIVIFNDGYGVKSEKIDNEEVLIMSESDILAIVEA

As to `CC(=O)N[C@@H](CSC(=O)[C@]1([C@@H](O)C(C)C)NC(=O)[C@H](C)[C@@H]1O)C(=O)O` [lactacystin], the “proportion of cells with inclusions of mutant huntingtin exon 1” value in experiment [1] is given as “increased the proportion of cells with inclusions”.
For HDJ-2/HSDJ: a human HSP40 homologue, the “proportion of cells with inclusions / inclusion formation” value in experiment [2] is given as “did not modify inclusion formation”. Moreover, in the experiment on COS-7 cells, the “inclusion formation in COS-7 cells” value is recorded as “increased inclusion formation”.

B1: GroEL(191-376): monomeric minichaperone, apical domain of GroEL, residues 191 to 376 (protein, UniProt P0A6F5 191-376, looked up, fragment)
chain: EGMQFDRGYLSPYFINKPETGAVELESPFILLADKKISNIREMLPVLEAVAKAGKPLLIIAEDVEGEALATLVVNTMRGIVKVAAVKAPGFGDRRKAMLQDIATLTGGTVISEEIGMELEKATLEDLGQAKRVVINKDTTTIIDGVGEEAAIQGRVAQIRQQIEEATSDYDREKLQERVAKLAGGV
modifications: apical domain
Consider B1, for which, in the experiment with bacteriophage λ, the “Effect of over-expression on λ growth / plaque counts” value is given as “no effect on plaque counts”. Besides, the “Binding to GroES” value in the experiment with GroES is recorded as “did not detectably bind”. The “enhancing the refolding rate of mtMDH” value in experiment [3] is on record as “ineffective in enhancing the refolding rate”.
